The text below walks through data of patent US6743586B2, “Rapid fluorescence detection of binding to nucleic acid drug targets labelled with highly fluorescent nucleotide base analogs” (The United States of America as represented by the …, priority 2001, dated 2004).

The target of assay [1] is 68AP-RRE. As to the kind of experiment: 2-AP fluorescence titration of 68AP-RRE with aminoglycosides. It is filed as binding, HIV-1. As for the experimental part: For example, using the 68AP-RRE construct, three classes of binding sites for the Neomycin B can be detected.
(§1) The fluorescence of RNA oligonucleotide samples (150 μL), selectively labeled with 2-AP, was measured at 10° C. on a SPEX Fluoromax-2 spectrofluorometer (Instruments, SA, Edison, N.J.) using a 0.3 cm square cuvette. RRE sample concentration was typically 100 nM in either standard buffer A (140 mM NaCl, 5 mM KCl, 1 mM MgCl2, 1 mM CaCl2, and 20 mM HEPES [7.4 pH]) or buffer B (25 mM NaCl, 5 mM KCl and 1 mM Cacodylate [6.5 pH]). Emission spectra were recorded over the wavelength range of 330 to 450 nm with an excitation wavelength of 310 nm. The spectral bandpass was 5 nm for all spectra. The dissociation constant for rev binding to RRE-72AP was determined by following the increase in fluorescence at 370 nm as a fixed concentration of the fluorescent RNA was titrated with increasing amounts if rev. Similarly, the binding of aminoglycosides was followed by monitoring the change in 2-AP fluorescence as a fixed concentration of RRE-72AP or RRE-68AP was titrated with increasing amounts of the aminoglycoside. Single site binding of rev or aminoglycoside was fitted to Formula I: […]
where Fo and Ff are the initial and final fluorescence intensities, respectively, [RRE]tot is the total RRE concentration, and [L]tot is the total concentration of rev, aminoglycoside or other ligands. Aminoglycoside binding to multiple sites on RRE was modeled using the computer program Dynafit. Competitive displacement assays were performed to determine which aminoglycoside binding were inhibitory to rev binding. For these experiments, a solution of 2-AP labeled RRE was incubated with a fixed concentration of Neomycin B (or rev peptide), and the fluorescence change followed as increasing amounts of competing rev peptide (or Neomycin B) was added to the solution. The fluorescence emission intensities at 370 nm as a function of total added ligand concentration were fit to a given molecular mechanism by non-linear least squared regression using the computer program Dynafit.

Assay [2] has as its target 72AP-RRE-peptide complex. As to the kind of experiment: Competitive displacement: 72AP-RRE-peptide complex (1:1) titrated with Neomycin B, Dynafit fit. The format is binding, HIV-1. As for the experimental part:
Quantitative analysis of the binding event indicates the rev peptide binds to 2-AP RRE with wild type affinity (KD˜13±2 nM). The fluorescent 72AP-RRE construct is also a useful probe for assaying small molecule binding to RRE, as well as determining if the small molecule is an effective inhibitor of the rev-RRE interaction. For example, it has been shown using the aminoglycoside Neomycin B, a known inhibitor of RRE-rev interaction, that the 72AP-RRE construct can be used to detect small molecule inhibition of the rev-RRE interaction. […]
as §1, with “RRE sample concentration was typically 100 nM in either standard buffer A (140 mM NaCl, 5 mM KCl, 1 mM MgCl2, 1 mM CaCl2, and 20 mM HEPES [7.4 pH]) or buffer B (25 mM NaCl, 5 mM KCl and 1 mM Cacodylate [6.5 pH]).” left out, “The spectral bandpass was 5 nm for all spectra.” left out, “aminoglycoside.” for “aminoglycoside. Single site binding of rev or aminoglycoside was fitted to Formula I:”

In assay [3] the target is 72AP-RRE. The assay can be described thus: 2-AP fluorescence titration of RRE-72AP with rev peptide. More on the design: species or system HIV-1. The following applies: fluorescence at 370 nm, 10° C., wild type affinity, read-out: KD of rev peptide binding to 2-AP RRE. As for the experimental part: The fluorescence of RNA oligonucleotide samples (150 μL), selectively labeled with 2-AP, was measured at 10° C. on a SPEX Fluoromax-2 spectrofluorometer (Instruments, SA, Edison, N.J.) using a 0.3 cm square cuvette. RRE sample concentration was typically 100 nM in either standard buffer A (140 mM NaCl, 5 mM KCl, 1 mM MgCl2, 1 mM CaCl2, and 20 mM HEPES [7.4 pH]) or buffer B (25 mM NaCl, 5 mM KCl and 1 mM Cacodylate [6.5 pH]). Emission spectra were recorded over the wavelength range of 330 to 450 nm with an excitation wavelength of 310 nm. The spectral bandpass was 5 nm for all spectra. The dissociation constant for rev binding to RRE-72AP was determined by following the increase in fluorescence at 370 nm as a fixed concentration of the fluorescent RNA was titrated with increasing amounts if rev. Similarly, the binding of aminoglycosides was followed by monitoring the change in 2-AP fluorescence as a fixed concentration of RRE-72AP or RRE-68AP was titrated with increasing amounts of the aminoglycoside. Single site binding of rev or aminoglycoside was fitted to Formula I:
F=−{(Fo−Ff)/2*[RRE]tot}{b−{square root over ((b^2−4[L]tot[RRE]tot))}}+Fo (1)
where Fo and Ff are the initial and final fluorescence intensities, respectively, [RRE]tot is the total RRE concentration, and [L]tot is the total concentration of rev, aminoglycoside or other ligands. […]

Assay [4] addresses RRE. As to conditions: direct binding, highly specific for the RRE; read-out: KD of rev binding to RRE; cited from earlier work.

Where two headings read alike, the source gives them in different places. *1 amine or outer side, *2 acyl side, *3 side chain or, on linkers, in order; H or OH if unused. Where no end group is shown, it is not given here. Suc = O=C(CCC(=O)[*:2])[*:1]

A word on the Kd: it is the equilibrium constant for the complex coming apart.

As to `[H]/N=C(/N)N[C@H]1[C@H](O)[C@@H](O)[C@H](O[C@@H]2O[C@@H](C)[C@](O)(C=O)[C@H]2O[C@@H]2O[C@@H](CO)[C@H](O)[C@@H](O)[C@@H]2NC)[C@@H](N/C(N)=N\[H])[C@@H]1O` [Streptomycin], in assay [1] (RRE, reported alongside the 68AP-RRE data, read-out: KD, low affinity binding interaction with RRE), the Kd amounted to 1500 nM.

As for `NC[C@@H]1O[C@H](O[C@H]2[C@@H](O)[C@H](O[C@@H]3[C@@H](O)[C@H](N)C[C@H](N)[C@H]3O[C@H]3O[C@H](CN)[C@@H](O)[C@H](O)[C@H]3N)O[C@@H]2CO)[C@H](N)[C@@H](O)[C@@H]1O` [Neomycin B], the Kd is 240 ± 40 nM in assay [1] (68AP-RRE construct, read-out: KD, first site, non-inhibitory to rev binding); 1800 ± 80 nM in assay [1] (68AP-RRE construct, read-out: KD, second site, inhibited rev binding in a competitive fashion); around 40000 nM in assay [1] (68AP-RRE construct, read-out: KD, third class of sites, non-specific binding); around 230 nM in assay [2] (read-out: KD, first tight site); around 1900 nM in assay [2] (read-out: KD, second site, competitive with rev).

In the case of Suc-TRQARRNRRWRERQRAAAK [rev peptide], in assay [3], the Kd is around 13 nM.

Take “rev: HIV-1 regulatory protein rev that binds the rev-responsive element (RRE)”: in assay [4], the Kd was 1 to 3 nM.
